Test results: ChEMBL document CHEMBL1201862, “PubChem BioAssay data set” (2004)
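Growth conditions: 96-well plates. Treatment: test compound, 48 hours, 5 concentrations. Analysis: linear interpolation between bracketing concentrations; unreached endpoints set to highest concentration. The concentration for 50% growth inhibition is given as GI50.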 Calls of active or inactive are those of the source. Rule as the data show it: active = GI50 up to about 1.1 µM and inactive = higher.

How the values were obtained:
Assay in all cases: growth of human tumour cells (NCI), 48 h
HCT-116 = system: HCT-116
IGROV-1 = system: IGROV-1
UACC-257 = system: UACC-257
M14 = system: M14
RPMI-8226 = system: RPMI-8226
KM12 = system: KM12
ACHN = system: ACHN
OVCAR-3 = system: OVCAR-3
HT-29 = system: HT-29
K562 = system: K562
T47D = system: T47D
LOX IMVI = system: LOX IMVI
TK-10 = system: TK-10
DU-145 = system: DU-145
SK-MEL-2 = system: SK-MEL-2
COLO 205 = system: COLO 205
SK-MEL-5 = system: SK-MEL-5
786-0 = system: 786-0
A498 = system: A498
SK-MEL-28 = system: SK-MEL-28
CCRF-CEM = system: CCRF-CEM
NCI-H460 = system: NCI-H460
SF-268 = system: SF-268
SNB-75 = system: SNB-75
SK-OV-3 = system: SK-OV-3
UO-31 = system: UO-31
Hs-578T = system: Hs-578T
MDA-MB-435 = system: MDA-MB-435
RXF 393 = system: RXF 393
MCF7 = system: MCF7
HOP-62 = system: HOP-62
NCI-H522 = system: NCI-H522
MOLT-4 = system: MOLT-4
HCC 2998 = system: HCC 2998
OVCAR-5 = system: OVCAR-5
PC-3 = system: PC-3
Malme-3M = system: Malme-3M
MDA-N = system: MDA-N
SW-620 = system: SW-620
HCT-15 = system: HCT-15
HL-60 = system: HL-60
BT-549 = system: BT-549
OVCAR-4 = system: OVCAR-4
MDA-MB-231 = system: MDA-MB-231
NCI-H23 = system: NCI-H23
OVCAR-8 = system: OVCAR-8
A549 = system: A549
SNB-19 = system: SNB-19
SN12C = system: SN12C
U-251 = system: U-251
UACC-62 = system: UACC-62
NCI/ADR-RES = system: NCI/ADR-RES
EKVX = system: EKVX
SF-295 = system: SF-295
CAKI-1 = system: CAKI-1
SF-539 = system: SF-539
HOP-92 = system: HOP-92

## CC[N+]1(C)CCC(O)(/C=C/c2ccc(Cl)cc2)C(C(=O)/C=C/c2ccc(Cl)cc2)C1 (configuration not stated)
HCT-116
  GI50: 3.48 µM (inactive)
IGROV-1
  GI50: 4.7 µM (inactive)
UACC-257
  GI50: 14.5 µM (inactive)
M14
  GI50: > 19.9 µM (inactive)
RPMI-8226
  GI50: 0.327 µM (active)
KM12
  GI50: 2.9 µM (inactive)
ACHN
  GI50: 3.6 µM (inactive)
OVCAR-3
  GI50: 11.5 µM (inactive)
HT-29
  GI50: 3.08 µM (inactive)
K562
  GI50: 2.37 µM (inactive)
T47D
  GI50: 4.86 µM (inactive)
LOX IMVI
  GI50: 2.71 µM (inactive)
TK-10
  GI50: 3.51 µM (inactive)
DU-145
  GI50: 12.1 µM (inactive)
SK-MEL-2
  GI50: 15.8 µM (inactive)
COLO 205
  GI50: 3.55 µM (inactive)
SK-MEL-5
  GI50: 10.5 µM (inactive)
786-0
  GI50: 3.01 µM (inactive)
A498
  GI50: 16.4 µM (inactive)
SK-MEL-28
  GI50: 6.17 µM (inactive)
CCRF-CEM
  GI50: 1.08 µM (active)
NCI-H460
  GI50: 4.48 µM (inactive)
SF-268
  GI50: 4.55 µM (inactive)
SNB-75
  GI50: 11.3 µM (inactive)
SK-OV-3
  GI50: 18 µM (inactive)
UO-31
  GI50: 6.58 µM (inactive)
Hs-578T
  GI50: 3.08 µM (inactive)
MDA-MB-435
  GI50: 3.85 µM (inactive)
RXF 393
  GI50: 7.66 µM (inactive)
MCF7
  GI50: 3.92 µM (inactive)
HOP-62
  GI50: 14.8 µM (inactive)
NCI-H522
  GI50: 2.88 µM (inactive)
MOLT-4
  GI50: 2.5 µM (inactive)
HCC 2998
  GI50: 17.5 µM (inactive)
OVCAR-5
  GI50: 17.3 µM (inactive)
PC-3
  GI50: 10.7 µM (inactive)
Malme-3M
  GI50: 6.62 µM (inactive)
MDA-N
  GI50: 3.45 µM (inactive)
SW-620
  GI50: 2.56 µM (inactive)
HCT-15
  GI50: 4.56 µM
HL-60
  GI50: 1.6 µM (inactive)
BT-549
  GI50: 13.8 µM (inactive)
OVCAR-4
  GI50: 28.4 µM (inactive)
MDA-MB-231
  GI50: 4.81 µM (inactive)
NCI-H23
  GI50: 9.89 µM (inactive)
OVCAR-8
  GI50: 4.59 µM (inactive)
A549
  GI50: 13.9 µM (inactive)
SNB-19
  GI50: 4.46 µM (inactive)
SN12C
  GI50: 7.11 µM (inactive)
U-251
  GI50: 3.81 µM (inactive)
UACC-62
  GI50: 13.8 µM (inactive)
NCI/ADR-RES
  GI50: 9.64 µM (inactive)
EKVX
  GI50: 18.8 µM (inactive)
SF-295
  GI50: 16.2 µM (inactive)
CAKI-1
  GI50: 1.9 µM (inactive)
SF-539
  GI50: 2.35 µM (inactive)
HOP-92
  GI50: 3.23 µM (inactive)
